Read-outs that look alike come from different tables or passages of the source.
Key:
[1] = tested on: AKT phosphorylation (Ser 473); test: FCS induced AKT phosphorylation (Ser473) in IPF primary human lung fibroblasts, MSD assay (Example 1); assay type: cell-based; conditions: Fibroblast, 0.5 h, fibroblasts from n=4 IPF lungs, 10% FCS, 30 minutes, geometric mean (95% CI 0.83-8 nM), read-out: IC50 for inhibition of FCS induced AKT phosphorylation
Method: Phosphorylation of AKT is widely accepted as an indication of PI3-kinase activity, and is utilised here to obtain an IC50 for the effect of 2,4-difluoro-N-{2-(methyloxy)-5-[4-(4-pyridazinyl)-6-quinolinyl]-3-pyridinyl}benzenesulfonamide on primary human lung fibroblasts isolated from the IPF patients, in addition to macrophages isolated from IPF bronchoalveolar lavage (BALF).
Fibroblasts are seeded in 96 well plates at a density of 10,000 cells per well. Following 24 hours of serum starvation, fibroblasts are pre-incubated for 15 minutes in serum free buffer containing a range of concentrations of 2,4-difluoro-N-{2-(methyloxy)-5-[4-(4-pyridazinyl)-6-quinolinyl]-3-pyridinyl}benzenesulfonamide (50 μl volumes per well, comprising 1:10 dilutions of inhibitor ranging from [3×10^−12M] to [3×10^−7M] in serum free DMEM). Fibroblasts are stimulated by the addition of foetal calf serum (FCS) to a final volume of 10%. 30 minutes after stimulation, supernatants are rapidly decanted, and the cell plate placed on ice. 35 μl of 1× Complete Lysis buffer is added to each well and incubated for 10 minutes at 4° C., and stored at −80° C. prior to further analysis. […] The assay protocol is completed as per manufacturer's instructions and plates analysed on an MSD SECTOR Imager. Data are read out as the % of total AKT phosphorylated at position Ser473.

[2] = tested on: primary human lung fibroblasts differentiated into myofibroblasts; test: Pro-collagen accumulation (hydroxyproline by HPLC) in supernatants of TGFβ differentiated myofibroblasts; assay type: cell-based; conditions: for inhibition at 0.003 µM / inhibition at 0.03 µM: Homo sapiens, Fibroblast
Method: Cultured non-IPF cell lines (as described in section 3.1.2) were used to study pro-collagen accumulation in cell culture supernatants, following TGF6 induced myofibroblast differentiation.
Cells were seeded at 100,000 cells per well in 12-well plates (NUNC #150628) in 1 mL complete DMEM and incubated until they reached 100% confluence (4-5 days). Medium was removed from the confluent cells and replaced with 1 mL pre-incubation medium (DMEM containing 4 mM glutamine, 50 μg/mL ascorbic acid, 0.2 mM proline and 0.4% FBS) and incubated for a further 24 hours. Fresh pre-incubation medium was added to 3 wells and immediately collected for analysis in order to determine background level (T0) of hydroxyproline present in the culture medium at the start of the incubation period. […]
Following 24 hours serum starvation, fibroblasts were stimulated with TGFβ1 (1 ng/mL, 24 hours) (R&D #101-B1) to induce myofibroblast differentiation. Subsequently TGFβ1 was either removed or replenished (by complete serum free media change±TGFβ, 1 ng/ml) and 2,4-difluoro-N-{2-(methyloxy)-5-[4-(4-pyridazinyl)-6-quinolinyl]-3 pyridinyl}benzenesulfonamide (final concentration 3 nM or 30 nM, in 0.1% DMSO) added. Dilutions of 2,4-difluoro-N-{2-(methyloxy)-5-[4-(4-pyridazinyl)-6-quinolinyl]-3 pyridinyl}benzenesulfonamide were prepared from a stock of 0.03M by serial 10-fold dilution in 0.1% DMSO and a further 1000-fold dilution. Differentiated myofibroblast cultures were incubated for further 24 and 48 hours at 37° C., 100% humidity, 10% CO2. See FIG. 1 and FIG. 2 for schematic of the experimental regimen.
At the end of each incubation time point cell supernatant was collected and frozen at −80° C. The cell layer was detached by incubating with 250 μL of 0.25% trypsin-EDTA for 5 minutes and a 1 mL suspension was made in DMEM. Cell counts were performed on the cell suspension using Sceptre […] sensor.
The cell supernatants were allowed to thaw at room temperature and proteins were precipitated overnight in 67% (v/v) ethanol at 4° C.
Precipitated proteins were recovered by vacuum filtration onto Durapore polyvinylidene difluoride (PVDF) membrane filters (pore size 0.45 μm) (type HV, Millipore Ltd., UK; # HVLP02500) and the adhering protein was washed twice with 1.5 mL ethanol (67% v/v). Filters with adherent protein were transferred to Pyrex hydrolysis tubes containing 2 mL 6M HCl. Ethanol-insoluble fractions were then hydrolysed at 110° C. for 16 h and the samples were decolourised by mixing with approx. 70 mg of charcoal and filtered onto Durapore membrane filters (pore size 0.65 μm) (type DA, Millipore Ltd., UK; DVPP02500). Aliquots (100 μl) of decolourised hydrolysate were transferred to 1.5 mL centrifuge tubes and evaporated to dryness using speed vac concentrator (Savant SPD 131DDA, Thermo Electron Corporation, Cambridge, UK).
Hydroxyproline accumulation in cell culture supernatants is used as a measure of pro-collagen production. Hydroxyproline represents approximately 12% of the primary sequence of pro-collagen and is essential for the formation of the collagen triple helix. Hydroxproline is not present in significant levels in any other proteins. Levels of hydroxyproline in cell culture hydrolysates was quantified by reverse-phase high performance liquid chromatography (HPLC) following derivitisation with 7-chloro-4-nitrobenzo-oxa-1; 3-diazole (NBD-CI) (Sigma; #17239-0050).
Hydroxyproline Standard: Standard samples of Trans-4-hydroxy-L-proline (PHPRO) Sigma; #H5534) are stored frozen at −20° C. in 10 μL (250 μM) aliquots. A 10 μL aliquot was diluted in 990 μL Milli-Q water (Milli-Q Plus; Millipore Ltd., UK) and used as standard. The final amount of Hydroxyproline (Hyp) standard loaded onto the column was 50 pmoles.
Samples: Milli-Q water (100 μL) was added to the dried aliquot of hydrolysate and left to rehydrate at 4° C. overnight. […]

With COc1ncc(-c2ccc3nccc(-c4ccnnc4)c3c2)cc1NS(=O)(=O)c1ccc(F)cc1F [2,4-difluoro-N-{2-(methyloxy)-5-[4-(4-pyridazinyl)-6-quinolinyl]-3-pyridinyl}benzenesulfonamide] the IC50 [1] was 2.58 nM, the inhibition at 0.003 µM ([2]; 24 h, line 0110 (A), TGFβ removed, 3 nM, 24 hour, read-out: mean percent inhibition of TGFβ induced pro-collagen production) was 31.6% and the inhibition at 0.03 µM ([2]; 24 h, line 0110 (A), TGFβ removed, 30 nM, 24 hour, read-out: mean percent inhibition of TGFβ induced pro-collagen production) was 60.8%. For the same molecule, the inhibition at 0.003 µM ([2]; 24 h, line 0610 (B), TGFβ removed, 3 nM, 24 hour, read-out: mean percent inhibition of TGFβ induced pro-collagen production) was 26.2%, the inhibition at 0.03 µM ([2]; 24 h, line 0610 (B), TGFβ removed, 30 nM, 24 hour, read-out: mean percent inhibition of TGFβ induced pro-collagen production) was 56.8% and the inhibition at 0.003 µM ([2]; 24 h, line 0610 (B), TGFβ replenished, 3 nM, 24 hour, read-out: mean percent inhibition of TGFβ induced pro-collagen production following replenishment of TGFβ) was 29.1%. The inhibition at 0.03 µM ([2]; 24 h, line 0610 (B), TGFβ replenished, 30 nM, 24 hour, read-out: mean percent inhibition of TGFβ induced pro-collagen production following replenishment of TGFβ) was 45.4%, the inhibition at 0.003 µM ([2]; 48 h, line 0110 (A), TGFβ removed, 3 nM, 48 hour, read-out: mean percent inhibition of TGFβ induced pro-collagen production) was 48.1% and the inhibition at 0.03 µM ([2]; 48 h, line 0110 (A), TGFβ removed, 30 nM, 48 hour, read-out: mean percent inhibition of TGFβ induced pro-collagen production) was 64%. For the same molecule, the inhibition at 0.003 µM ([2]; 48 h, line 0110 (A), TGFβ replenished, 3 nM, 48 hour, read-out: mean percent inhibition of TGFβ induced pro-collagen production following replenishment of TGFβ) was 6.3%, the inhibition at 0.03 µM ([2]; 48 h, line 0110 (A), TGFβ replenished, 30 nM, 48 hour, read-out: mean percent inhibition of TGFβ induced pro-collagen production following replenishment of TGFβ) was 35.2% and the inhibition at 0.003 µM ([2]; 48 h, line 0610 (B), TGFβ removed, 3 nM, 48 hour, read-out: mean percent inhibition of TGFβ induced pro-collagen production) was 35.6%. For the same molecule, the inhibition at 0.03 µM ([2]; 48 h, line 0610 (B), TGFβ removed, 30 nM, 48 hour, read-out: mean percent inhibition of TGFβ induced pro-collagen production) was 59.6%, the inhibition at 0.03 µM ([2]; 48 h, line 0610 (B), TGFβ replenished, 30 nM, 48 hour, read-out: mean percent inhibition of TGFβ induced pro-collagen production following replenishment of TGFβ) was 37.7% and the “mean percent inhibition of TGFβ induced pro-collagen production following replenishment of TGFβ” value (shortened to “mean percent inhibition”) ([2]; line 0110 (A), TGFβ replenished, 3 nM, 24 hour) was “No inhibition”. The “mean percent inhibition” value ([2]; line 0110 (A), TGFβ replenished, 30 nM, 24 hour) was “No inhibition” and the “mean percent inhibition” value ([2]; line 0610 (B), TGFβ replenished, 3 nM, 48 hour) was “No inhibition”.
